In the oligonucleotide strings, read from the 5' end, every base follows the letter of its sugar. An asterisk marks phosphorothioate; unmarked linkages are phosphodiester. Other units and linkages are bracketed, terminal groups are in braces. A string of capitals states the bases alone. d = 2'-deoxy (DNA); m = 2'-O-methyl
Biological target: T1, TLR8 (Homo sapiens, UniProt Q9NR97)
T1 sequence (Q9NR97 27-1041): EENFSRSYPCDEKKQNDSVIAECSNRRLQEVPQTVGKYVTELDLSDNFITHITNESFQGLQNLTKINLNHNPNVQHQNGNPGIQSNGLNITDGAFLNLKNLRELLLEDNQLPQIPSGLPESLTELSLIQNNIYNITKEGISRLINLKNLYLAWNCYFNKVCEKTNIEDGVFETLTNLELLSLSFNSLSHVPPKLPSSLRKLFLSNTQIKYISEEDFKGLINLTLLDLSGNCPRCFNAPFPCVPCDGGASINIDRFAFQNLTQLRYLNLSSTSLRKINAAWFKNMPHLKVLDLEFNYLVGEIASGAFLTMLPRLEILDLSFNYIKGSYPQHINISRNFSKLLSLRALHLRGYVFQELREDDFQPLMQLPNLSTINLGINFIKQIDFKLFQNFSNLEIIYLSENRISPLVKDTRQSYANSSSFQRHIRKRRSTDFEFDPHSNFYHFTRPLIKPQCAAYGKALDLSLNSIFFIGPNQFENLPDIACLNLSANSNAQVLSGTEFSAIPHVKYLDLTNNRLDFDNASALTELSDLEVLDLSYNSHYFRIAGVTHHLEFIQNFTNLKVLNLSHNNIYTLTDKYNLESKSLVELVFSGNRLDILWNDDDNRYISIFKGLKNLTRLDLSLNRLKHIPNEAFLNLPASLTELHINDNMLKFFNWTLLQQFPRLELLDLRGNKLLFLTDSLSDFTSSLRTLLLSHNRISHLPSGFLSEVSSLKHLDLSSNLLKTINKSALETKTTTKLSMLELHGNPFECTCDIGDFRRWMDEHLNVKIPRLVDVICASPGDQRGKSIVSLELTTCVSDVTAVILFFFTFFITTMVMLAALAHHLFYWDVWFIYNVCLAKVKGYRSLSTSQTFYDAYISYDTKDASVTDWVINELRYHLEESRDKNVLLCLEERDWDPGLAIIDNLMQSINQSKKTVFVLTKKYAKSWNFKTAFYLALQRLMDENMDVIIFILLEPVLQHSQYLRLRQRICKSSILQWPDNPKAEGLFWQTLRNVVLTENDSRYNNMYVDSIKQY
Assay: HEK-TLR8 NF-κB-luciferase reporter, R848 or Motolimod stimulation (potentiation or inhibition)
Type: cell-based
Parameters: expressed in transfected cells; host or cells: 293XLhTLR8 (HEK293)
Conditions: for TLR8 100 nM (averaged NF-κB-Luciferase level relative to R848 condition, fold increase): ASO 100 nM; for TLR8 100 nM (averaged NF-κB-Luciferase level relative to R848 condition, fold increase) / TLR8 500 nM (averaged NF-κB-Luciferase level relative to R848 condition, fold increase): relative to R848 only; for TLR8 500 nM (averaged NF-κB-Luciferase level relative to R848 condition, fold increase): ASO 500 nM; for TLR8-500 nM: averaged NF-κB-Luciferase relative to R848: 500 nM ASO, fold increase relative to R848 without ASO (Alharbi et al., 2020)

| Substance | TLR8 100 nM (averaged NF-κB-Luciferase level relative to R848 condition, fold increase) | TLR8 500 nM (averaged NF-κB-Luciferase level relative to R848 condition, fold increase) | TLR8-500 nM: averaged NF-κB-Luciferase relative to R848 (HEK-TLR8) [fold] | TLR8 potentiation of R848 sensing, 20-mer ASOs (in words) (HEK-TLR8, 500 nM ASO ~30 min, R848 overnight) |
| --- | --- | --- | --- | --- |
| TGACTGTCTTGAGGGT (antisense; LNA-modified, pattern not given here) [MB21D1-1483 LNA KL] | 0.973 | 3.210 |  |  |
| GTCTTCATCGGCCCTG (antisense; LNA-modified, pattern not given here) [CAMSAP1-2113 LNA V1] | 0.664 | 2.086 |  |  |
| GAAAGGTTATGCAAGG (antisense; LNA-modified, pattern not given here) [CTNN2B-916 LNA KL] | 1.156 | 4.110 |  |  |
| ATCTGGCAGCCCATCA (antisense; LNA-modified, pattern not given here) [CTNN2B-2516 LNA V1] | 0.808 | 2.628 |  |  |
| CCTTGCACGTGGCTTC (antisense; LNA-modified, pattern not given here) [EGFR-1013 LNA V1] | 1.315 | 2.414 |  |  |
| CGCTTTTCTGTCTGGT (antisense; LNA-modified, pattern not given here) [CTNN2B-311 LNA KL] | 0.920 | 2.896 |  |  |
| TGTCCTTGCACGTGGC (antisense; LNA-modified, pattern not given here) [EGFR-1016 LNA V1] | 0.636 | 1.158 |  |  |
| GCACACTTCGTACCCA (antisense; LNA-modified, pattern not given here) [CAMSAP1-4915 LNA V1] | 0.319 | 1.091 |  |  |
| mU*mA*mU*mU*mU*C*C*A*C*A*T*G*C*C*C*mA*mG*mU*mG*mU (mU*mA*mU*mU*mU*dC*dC*dA*dC*dA*dT*dG*dC*dC*dC*mA*mG*mU*mG*mU; antisense) [[CDKN2B-AS1]627] |  |  | 3.87 |  |
| mG*mC*mA*mG*mU*C*T*C*C*A*T*G*T*C*C*mC*mA*mG*mG*mC (GCAGUCTCCATGTCCCAGGC; antisense; sugars from the 5' end m5 d10 m5, all phosphorothioate, methylation of C not given here) [[CDKN2B-AS1]2234] |  |  | 2.25 | weak potentiator of TLR8 |
| TCTTCATCGGCCCTGC (antisense; LNA-modified, pattern not given here) [CAMSAP1-2112 LNA V1] | 0.595 | 1.393 |  |  |
| mG*mU*mG*mU*mC*C*T*T*C*A*T*G*C*T*T*mU*mG*mG*mA*mU (GUGUCCTTCATGCTTUGGAU; antisense; sugars from the 5' end m5 d10 m5, all phosphorothioate, methylation of C not given here) [[CDKN2B-AS1]1415] |  |  | 1.60 |  |
| TTCAGGCGCTGCCTTG (antisense; LNA-modified, pattern not given here) [CAMSAP1-2709 LNA V1] | 0.479 | 0.764 |  |  |
| AGGACTCCAGATGTTT (antisense; LNA-modified, pattern not given here) [HPRT LNA pos cont] | 0.278 | 1.034 |  |  |
| CGTATTATAGCCGATT (antisense; LNA-modified, pattern not given here) [NC1 LNA PS 3-10-3] | 0.396 | 0.716 |  |  |
| GTCAAGGGCATATCCT (antisense; LNA-modified, pattern not given here) [HPRT LNA-732 KL] | 0.543 | 2.301 |  |  |

| Substance | TLR8 100 nM (averaged NF-κB-Luciferase level relative to R848 condition, fold increase) | TLR8 500 nM (averaged NF-κB-Luciferase level relative to R848 condition, fold increase) | TLR8-500 nM: averaged NF-κB-Luciferase relative to R848 (HEK-TLR8) [fold] | TLR8 potentiation of R848 sensing, 20-mer ASOs (in words) (HEK-TLR8, 500 nM ASO ~30 min, R848 overnight) |
| --- | --- | --- | --- | --- |
| mC*mU*mU*mG*mU*G*A*A*A*A*G*A*T*T*A*mU*mC*mU*mU*mC (mC*mU*mU*mG*mU*dG*dA*dA*dA*dA*dG*dA*dT*dT*dA*mU*mC*mU*mU*mC) [[CDKN2B-AS1]2139] |  |  | 6.02 |  |
| CGGCCTCGGAAGCTCT (antisense; LNA-modified, pattern not given here) [MB21D1-168 LNA V1] | 0.402 | 0.219 |  |  |
| TGACAAAGATTCACTG (antisense; LNA-modified, pattern not given here) [HPRT LNA-1353 KL] | 0.633 | 1.756 |  |  |
| CTTGAAGCATCGTATC (antisense; LNA-modified, pattern not given here) [CTNN2B-3648 LNA KL] | 0.960 | 3.889 |  |  |
| ATGTGATGGCCTCCCA (antisense; LNA-modified, pattern not given here) [HPRT LNA-335 V1] | 0.637 | 1.840 |  |  |
| GTCTCTGGAGCTTCCT (antisense; LNA-modified, pattern not given here) [CAMSAP1-2456 LNA V1] | 0.764 | 2.402 |  |  |
| GATGGCCTCCCATCTC (antisense; LNA-modified, pattern not given here) [HPRT LNA-331 V1] | 0.278 | 0.186 |  |  |
| TCCGCCCAAAGGGAAC (antisense; LNA-modified, pattern not given here) [HPRT LNA-1027 KL] | 0.541 | 0.725 |  |  |
| GTGATGGCCTCCCATC (antisense; LNA-modified, pattern not given here) [HPRT LNA-333 V1] | 0.517 | 1.112 |  |  |
| GTCCTTGCACGTGGCT (antisense; LNA-modified, pattern not given here) [EGFR-1015 LNA V1] | 0.570 | 0.936 |  |  |
| GGTCATTACAATAGCT (antisense; LNA-modified, pattern not given here) [HPRT LNA-475 KL] | 0.500 | 1.381 |  |  |
| CATCCACCACGTCGTC (antisense; LNA-modified, pattern not given here) [EGFR-3266 LNA V1] | 0.778 | 2.417 |  |  |
| TCCACAATCAAGACAT (antisense; LNA-modified, pattern not given here) [HPRT LNA-551 KL] | 0.474 | 0.893 |  |  |
| TCTTGGCTTCGTGGAG (antisense; LNA-modified, pattern not given here) [MB21D1-521 LNA V1] | 0.541 | 0.197 |  |  |
| ACCACGTCTGCTCTAA (antisense; LNA-modified, pattern not given here) [CAMSAP1-1635 LNA KL] | 0.933 | 4.259 |  |  |
| CCACATCCTGTGGCTC (antisense; LNA-modified, pattern not given here) [CAMSAP1-2906 LNA V1] | 0.291 | 0.232 |  |  |
